Experiments:
phosphorylated FGFR3 = phosphorylated FGFR3 (Homo sapiens (Human), UniProt P22607); assay: FGFR Enzyme Binding Assay (HTRF tracer displacement), FGFR3; details: 5 nM phosphorylated FGFR3, 60 minute incubation at 22° C.; read-out: FGFR3 Enz Binding IC50
Description: (§1) The potency of compounds inhibiting human isoforms of FGFR kinase was determined using Life Technologies' Homogeneous Time Resolved Fluorescence (HTRF)-based binding assay technology. An incubation was conducted with either 5 nM dephosphorylated FGFR1 (Array Biopharma, p1702; SEQ ID NO: 1, amino acids 458 to 765, dephosphorylated by co-expression with PTP1b (protein tyrosine phosphatase 1B)), 5 nM dephosphorylated FGFR2 (Life Technologies, Cat. No. PV4106 that had been dephosphorylated with Lambda protein phosphatase (New England Biolabs, cat #P0753)) or 5 nM phosphorylated FGFR3 (Array Biopharma, p1836; SEQ ID NO: 5, amino acids 449 to 759), 50 nM Kinase Tracer 236 (Life Technologies Cat. No. PR9078A), 2 nM Biotin-anti-6HIS (Life Technologies Cat. No. PV6090) and 2 nM Europium-Streptavidin (Life Technologies Cat. No. PV6025) along with test compound in a buffer consisting of 50 mM HEPES ((4-(2-hydroxyethyl)-1-piperazineethanesulfonic acid, pH 7.5), 5 mM MgCl2, 0.005% Triton X-100, 1 mM DTT, 1 mM NaVO4 and 2% DMSO in a final volume of 12 μL Compounds were typically prepared as a 3-fold or 4-fold serial dilution in DMSO and added to the assay to give the appropriate final concentration. After a 60 minute incubation at 22° C., the extent of tracer displacement was determined using a PerkinElmer EnVision multimode plate reader via HTRF dual wavelength detection, and the percent of control (POC) was calculated using a ratiometric emission factor. One hundred POC was determined using no test compound, and 0 POC was determined in the presence of 1 μM of an appropriate control inhibitor. A 4-parameter logistic curve was fit to the POC values as a function of the concentration of compound, and the IC50 value was the point where the best-fit curve crossed 50 POC.

[1] = target: recombinant human FGFR1 catalytic domain (Homo sapiens (Human), UniProt P11362); assay: FGFR Enzyme Activity Assay (LanthaScreen TR-FRET), FGFR1; type: biochemical; details: 15 μM ATP, 20 minutes incubation; read-out: FGFR1 Enz FRET IC50
Description: FGFR1 kinase activity was measured by the Invitrogen LanthaScreen™ Assay technology which directly measures the amount of substrate phosphorylation by Time-resolved fluorescence energy transfer (TR-FRET) using a flourescently-labeled peptide and Europium-labeled antibody. Briefly, 200 pM His-tagged recombinant human FGFR1 catalytic domain (amino acids 308-731) (Life Technologies Cat. No. PR4660A) was incubated with 100 nM Alexa Fluor® 647-Poly-GT Peptide Substrate (Life Technologies Cat. No. PV5836) and 15 μM ATP along with test compound in a buffer consisting of 250 mM HEPES, 25 mM MgCl2, 0.05% TritonX-100, pH 7.5, and 2% DMSO. Compounds were typically prepared in a threefold serial dilution in DMSO and added to the assay to give the appropriate final concentration. After a 20 minutes incubation at 22° C., an equal volume of 2 nM LanthaScreen® Eu-PY20 Antibody (Life Technologies Cat. No. PV5691) and 10 mM EDTA was added to quench the kinase reaction and start the detection reaction. After an additional 60 minute incubation at 22° C., the reaction was measured using a PerkinElmer EnVision multimode plate reader via TR-FRET dual wavelength detection, and the percent of control (POC) calculated using a ratiometric emission factor. 100 POC was determined using no test compounds and 0 POC was determined using no enzyme. The POC values were fit to a 4-parameter logistic curve as a function of the concentration of the compound, and the IC50 value is the point where the curve crosses 50 POC.

[2] = target: recombinant human FGFR2 cytoplasmic domain (Homo sapiens (Human), UniProt P21802); assay: FGFR Enzyme Activity Assay (LanthaScreen TR-FRET), FGFR2; type: biochemical; details: 15 μM ATP, 20 minute incubation; read-out: FGFR2 Enz FRET IC50
Description: FGFR2 kinase activity was measured by the Invitrogen LanthaScreen™ Assay technology which directly measures the amount of substrate phosphorylation by TR-FRET using a flourescently-labeled peptide and Europium-labeled antibody. Briefly, 200 pM His-tagged recombinant human FGFR2 cytoplasmic domain (amino acids 403-822) (Life Technologies Cat. No. PR5332A) was incubated with 100 nM Alexa Fluor® 647-Poly-GT Peptide Substrate (Life Technologies Cat. No. PV5836) and 15 μM ATP along with test compound in a buffer consisting of 250 mM HEPES, 25 mM MgCl2, 0.05% TritonX-100, pH 7.5, and 2% DMSO. Compounds were typically prepared in a threefold serial dilution in DMSO and added to the assay to give the appropriate final concentration. After a 20 minute incubation at 22° C., an equal volume of 2 nM LanthaScreen® Eu-PY20 Antibody (Life Technologies Cat. No. PV5691) and 10 mM EDTA were added to quench the kinase reaction and start the detection reaction. After an additional 60 minute incubation at 22° C., the reaction was measured using a PerkinElmer EnVision multimode plate reader via TR-FRET dual wavelength detection, and the percent of control (POC) calculated using a ratiometric emission factor. 100 POC was determined using no test compounds and 0 POC was determined using no enzyme. The POC values were fit to a 4-parameter logistic curve as a function of the concentration of the compound, and the IC50 value is the point where the curve crosses 50 POC.

dephosphorylated FGFR1 = dephosphorylated FGFR1 (Homo sapiens (Human), UniProt P11362); assay: FGFR Enzyme Binding Assay (HTRF tracer displacement), FGFR1; details: 5 nM dephosphorylated FGFR1, 60 minute incubation at 22° C.; read-out: FGFR1 Enz Binding IC50
Description: as §1

Sequence of recombinant human FGFR1 catalytic domain (P11362 other isoform, or with tags, fused parts or gaps): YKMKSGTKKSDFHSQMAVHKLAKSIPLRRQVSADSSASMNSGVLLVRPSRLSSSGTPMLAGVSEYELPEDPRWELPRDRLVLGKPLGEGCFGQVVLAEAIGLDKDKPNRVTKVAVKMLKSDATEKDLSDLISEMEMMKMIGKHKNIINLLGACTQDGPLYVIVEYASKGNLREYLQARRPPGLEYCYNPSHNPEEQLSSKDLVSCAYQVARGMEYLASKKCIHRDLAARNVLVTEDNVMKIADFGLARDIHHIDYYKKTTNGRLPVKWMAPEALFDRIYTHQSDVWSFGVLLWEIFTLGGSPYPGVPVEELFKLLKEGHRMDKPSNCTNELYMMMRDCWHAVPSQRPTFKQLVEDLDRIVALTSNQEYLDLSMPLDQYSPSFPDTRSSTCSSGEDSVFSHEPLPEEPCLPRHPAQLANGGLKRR
Sequence of phosphorylated FGFR3 (P22607 449-759): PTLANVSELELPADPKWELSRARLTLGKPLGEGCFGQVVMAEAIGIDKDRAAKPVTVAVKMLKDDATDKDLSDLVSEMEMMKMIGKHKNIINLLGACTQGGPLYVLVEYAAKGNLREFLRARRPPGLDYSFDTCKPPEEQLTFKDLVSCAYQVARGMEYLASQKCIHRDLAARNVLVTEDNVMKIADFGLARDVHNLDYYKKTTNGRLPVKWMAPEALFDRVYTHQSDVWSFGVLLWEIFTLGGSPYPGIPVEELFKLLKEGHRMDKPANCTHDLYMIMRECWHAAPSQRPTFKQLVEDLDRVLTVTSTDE
Sequence of dephosphorylated FGFR1 (P11362 458-765): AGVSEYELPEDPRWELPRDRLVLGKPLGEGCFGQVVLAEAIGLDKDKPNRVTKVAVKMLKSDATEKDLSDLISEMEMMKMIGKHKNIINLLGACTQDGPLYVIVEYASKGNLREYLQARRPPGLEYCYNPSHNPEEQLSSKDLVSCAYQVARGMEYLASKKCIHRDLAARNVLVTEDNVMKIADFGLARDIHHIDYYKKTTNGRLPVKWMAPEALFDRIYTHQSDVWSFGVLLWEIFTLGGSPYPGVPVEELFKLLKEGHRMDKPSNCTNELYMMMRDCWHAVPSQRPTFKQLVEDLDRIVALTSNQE
Sequence of recombinant human FGFR2 cytoplasmic domain (P21802 402-821): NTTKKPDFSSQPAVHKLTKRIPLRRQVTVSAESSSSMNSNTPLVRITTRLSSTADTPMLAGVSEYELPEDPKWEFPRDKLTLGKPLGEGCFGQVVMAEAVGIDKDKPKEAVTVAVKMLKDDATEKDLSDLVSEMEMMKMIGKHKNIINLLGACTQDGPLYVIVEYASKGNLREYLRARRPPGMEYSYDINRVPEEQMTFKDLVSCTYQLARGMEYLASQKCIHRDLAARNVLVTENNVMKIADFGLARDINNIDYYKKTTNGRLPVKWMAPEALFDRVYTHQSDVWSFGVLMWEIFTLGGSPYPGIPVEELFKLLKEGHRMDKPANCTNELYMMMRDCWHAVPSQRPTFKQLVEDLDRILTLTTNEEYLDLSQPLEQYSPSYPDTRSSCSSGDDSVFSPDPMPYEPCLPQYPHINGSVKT

IC50 (phosphorylated FGFR3) | IC50 [1] | IC50 [2] | IC50 (dephosphorylated FGFR1) | SMILES
2 nM | 29 nM | 10 nM | 22 nM | COc1cc(Nc2ccc3ncc(-c4cnn(C5CCN(C(=O)C6CN(C(=O)/C=C/CN(C)C)C6)CC5)c4)nc3c2)cc(OC)c1 [Example 9, (E)-1-(3-(4-(4-(7-((3,5-dimethoxyphenyl)amino)-quinoxalin-2-yl)-1H-pyrazol-1-yl)piperidine-1-carbonyl)azetidin-1-yl)-4-(dimethylamino)but-2-en-1-one]
4 nM | 288 nM | 166 nM | 55 nM | COc1cc(Nc2ccc3ncc(-c4cnn([C@@H]5CCN(C(=O)C6(F)CN(C(=O)/C=C/CN(C)C)C6)C5)c4)nc3c2)cc(OC)c1 [Example 19, (R,E)-1-(3-(3-(4-(7-((3,5-dimethoxyphenyl)amino)-quinoxalin-2-yl)-1H-pyrazol-1-yl)pyrrolidine-1-carbonyl)-3-fluoro-azetidin-1-yl)-4-(dimethyl-amino)but-2-en-1-one]
3 nM | 147 nM | 159 nM | 34 nM | C=CC(=O)N1CC(CN2CCC(n3cc(-c4cnc5ccc(Nc6cc(OC)cc(OC)c6)cc5n4)cn3)CC2)C1 [Example 30, 1-(3-((4-(4-(7-((3,5-dimethoxyphenyl)amino)quinoxalin-2-yl)-1H-pyrazol-1-yl)piperidin-1-yl)methyl)azetidin-1-yl)prop-2-en-1-one]
6 nM | 10 nM | 12 nM | 13 nM | C=CC(=O)N1CC(O)(C(=O)N2CCC(n3cc(-c4cnc5ccc(N(C)c6cc(OC)cc(OC)c6)cc5n4)cn3)CC2)C1 [Example 27, 1-(3-(4-(4-(7-((3,5-dimethoxyphenyl)(methyl)amino)quinoxalin-2-yl)-1H-pyrazol-1-yl)piperidine-1-carbonyl)-3-hydroxyazetidin-1-yl)prop-2-en-1-one]
2 nM | 21 nM | 5 nM | 6 nM | C#CCN(c1cc(OC)cc(OC)c1)c1ccc2ncc(-c3cnn(C4CCN(C(=O)C5(F)CN(C(=O)/C=C/CN(C)C)C5)CC4)c3)nc2c1 [Example 28, (E)-1-(3-(4-(4-(7-((3,5-dimethoxyphenyl)(prop-2-yn-1-yl)amino)quinoxalin-2-yl)-1H-pyrazol-1-yl)piperidine-1-carbonyl)-3-fluoroazetidin-1-yl)-4-(dimethylamino)but-2-en-1-one]
13 nM | 5000 nM | 3460 nM | 842 nM | COc1cc(Nc2ccc3ncc(-c4c(C)nn(C5CCN(C(=O)C6(F)CN(C(=O)/C=C/CN(C)C)C6)CC5)c4C)nc3c2)cc(OC)c1 [Example 23, (E)-1-(3-(4-(4-(7-((3,5-dimethoxyphenyl)amino)-quinoxalin-2-yl)-3,5-dimethyl-1H-pyrazol-1-yl)piperidine-1-carbonyl)-3-fluoroazetidin-1-yl)-4-(dimethylamino)but-2-en-1-one]
18 nM | 1210 nM | 555 nM | 244 nM | C=CC(=O)N1CC(C(=O)N2CCC(n3ncc(-c4cnc5ccc(Nc6cc(OC)cc(OC)c6)cc5n4)c3C)CC2)C1 [Example 18, 1-(3-(4-(4-(7-((3,5-dimethoxyphenyl)amino)-quinoxalin-2-yl)-5-methyl-1H-pyrazol-1-yl)piperi-dine-1-carbonyl)azetidin-1-yl)prop-2-en-1-one]
335 nM | 2150 nM | 1910 nM | 6620 nM | COc1cc(Nc2ccc3ncc(-c4ccc(N5CCN(C(=O)C6(F)CN(C(=O)/C=C/CN(C)C)C6)CC5)nc4C)nc3c2)cc(OC)c1 [Example 13, (E)-1-(3-(4-(5-(7-((3,5-dimethoxyphenyl)amino)-quinoxalin-2-yl)-6-methylpyridin-2-yl)-piperazine-1-carbonyl)-3-fluoroazetidin-1-yl)-4-(dimethylamino)but-2-en-1-one]
5 nM | 295 nM | 187 nM | 38 nM | C=CC(=O)N1CC(C(=O)N2CC[C@@H](n3cc(-c4cnc5ccc(Nc6cc(OC)cc(OC)c6)cc5n4)cn3)C2)C1 [Example 21, (R)-1-(3-(3-(4-(7-((3,5-dimethoxyphenyl)amino)-quinoxalin-2-yl)-1H-pyrazol-1-yl)pyrrolidine-1-carbonyl)azetidin-1-yl)prop-2-en-1-one]
6 nM | 118 nM | 121 nM | 37 nM | C=CC(=O)N1CC(O)(C(=O)N2CCC(n3cc(-c4cnc5ccc(Nc6cc(OC)cc(OC)c6)cc5n4)cn3)CC2)C1 [Example 26, 1-(3-(4-(4-(7-((3,5-dimethoxyphenyl)amino)quinoxalin-2-yl)-1H-pyrazol-1-yl)piperidine-1-carbonyl)-3-hydroxyazetidin-1-yl)prop-2-en-1-one]
116 nM | 5000 nM | 5000 nM | 2370 nM | C=CC(=O)N1CC(F)(C(=O)N2CCN(c3cc(C)c(-c4cnc5ccc(Nc6cc(OC)cc(OC)c6)cc5n4)cn3)CC2)C1 [Example 15, 1-(3-(4-(5-(7-((3,5-dimethoxyphenyl)amino)-quinoxalin-2-yl)-4-methylpyridin-2-yl)-piperazine-1-carbonyl)-3-fluoroazetidin-1-yl)prop-2-en-1-one]
11 nM | 364 nM | 227 nM | 342 nM | COc1cc(Nc2ccc3ncc(-c4ccc(N5CCN(C(=O)C6(F)CN(C(=O)/C=C/CN(C)C)C6)CC5)nc4)nc3c2)cc(OC)c1 [Example 7, (E)-1-(3-(4-(5-(7-((3,5-dimethoxyphenyl)amino)-quinoxalin-2-yl)pyridin-2-yl)piperazine-1-carbonyl)-3-fluoroazetidin-1-yl)-4-(dimethylamino)but-2-en-1-one]
327 nM | 1760 nM | 1740 nM | 759 nM | C=CC(=O)N1CC(C(=O)N2CCN(c3cccc(-c4cnc5ccc(Nc6cc(OC)cc(OC)c6)cc5n4)c3)CC2)C1 [Example 25, 1-(3-(4-(3-(7-((3,5-dimethoxyphenyl)amino)-quinoxalin-2-yl)phenyl)-piperazine-1-carbonyl)-azetidin-1-yl)prop-2-en-1-one]

Source: patent US12351571B2, “Substituted quinoxaline compounds as inhibitors of FGFR tyrosine kinases” (ARRAY BIOPHARMA INC., priority 2018, dated 2025)
